Measurements published in patent publication US9307761B2, “Microbial composition” (Rohm and Haas Company, priority 2011, dated 2016).

Experiments:
Type in all cases: cell-based
[1] = tested on: Escherichia coli (E. coli—ATCC #10536); assay: Synergy tests: high resolution MBC microtiter plate assay, 15 seconds contact, phosphate buffer containing […] dipropylene glycol; conditions: E. coli 10536; for SI (Synergy Index = Qa/QA + Qb/QB): at Qa and Qb, <1 synergy, 1 additivity, >1 antagonism; for MBC of the component acting alone (QA or QB): complete kill in 15 seconds
Description: The concentrations and ratios may also vary under different test conditions or with different test methods.
One measure of synergy is the industrially accepted method described by Kull, F. C.; Eisman, P. C.; Sylwestrowicz, H. D. and Mayer, R. L., in Applied Microbiology 9:538-541 (1961), using the ratio determined by the formula: Qa/QA+Qb/QB=Synergy Index (“SI”) wherein: • QA=concentration of compound A (first component) in percent, acting alone, which produced an end point (MBC of Compound A). • Qa=concentration of compound A in percent, in the mixture, which produced an end point. • QB=concentration of compound B (second component) in percent, acting alone, which produced an end point (MBC of Compound B). • Qb=concentration of compound B in percent, in the mixture, which produced an end point.
When the sum of Qa/QA and Qb/QB is greater than one, antagonism is indicated. […] The lower the SI, the greater is the synergy shown by that particular mixture. The minimum biocidal concentration (MBC) of a microbicide is the lowest concentration tested under a specific set of conditions that provides complete kill of the tested microorganisms.
Synergy tests were conducted using standard microtiter plate assays with phosphate buffer containing 3.5% dipropylene glycol (DPG). In this method, a wide range of combinations of chemicals was tested by conducting high resolution MBC assays of Component (A) in the presence of various concentrations of Component (B). High resolution MBCs were determined by adding varying amounts of microbicide to one column of a microtiter plate and doing subsequent […] dilutions using an automated liquid handling system to obtain a series of closely spaced endpoints. The MBC plate was inoculated one column at a time with the test microorganism. An aliquot of the inoculated well was transferred at 15 seconds to a plate containing a neutralizing agent (D/E Neutralizing Broth), mixed and held for 5 minutes before being transferred to a growth plate containing trypticase soy broth (TSB). The TSB plate was incubated at 37° C. and read for the presence/absence of growth at 24 hours. The lowest level tested that provided complete kill (as evidenced by no growth in the microtitre plate) of the test organisms in 15 seconds is the minimum biocidal concentration (MBC).
The synergy of the combinations of the present invention was determined against a bacterium, Escherichia coli (E. coli—ATCC #10536), at a concentration of approximately 1×10^8 bacteria, per mL. This microorganism is representative of natural contaminants in many consumer and industrial applications.

[2] = tested on: Escherichia coli (E. coli—ATCC #10536); assay: Automated assessment of efficacy in model surfactant medium (2.85% sodium cocoyl glycinate and 1.85% sodium lauroamphoacetate), 15 seconds exposure, delta OD450/OD590; conditions: for MBC: Escherichia coli, ATCC10536, 15 s, in 2.85% sodium cocoyl glycinate + 1.85% sodium lauroamphoacetate solution at pH 10, E. coli, read-out: MBC (minimum biocidal concentration); for No. of replicates showing growth (out of 4) / Δ OD 450 nm = OD450 (time = 16 hours) − OD450 (time zero), Mean / Δ OD 590 nm OD590 (time = 16 hours) − OD590 (time zero), Mean / MBC of phenol: model surfactant solution; for No. of replicates showing growth (out of 4) / Δ OD 450 nm = OD450 (time = 16 hours) − OD450 (time zero), Mean / Δ OD 590 nm OD590 (time = 16 hours) − OD590 (time zero), Mean: 15 s exposure; for MBC of phenol: phenol alone, complete bacterial kill against E. coli
Procedure: Micobiocidal Activity of Actives as Per the Invention in a Model Surfactant Medium Test Methodology for Automated Assessment of Efficacy in Surfactant Base
Solutions were prepared such that the concentrations of the surfactant components and test actives were 1.1×the final desired concentration in order to allow for dilution with the bacterial inoculum in the test. The solutions were manually adjusted to […] by dropwise addition of sodium hydroxide solution, as measured with a pH meter at ambient temperature.
Tests were conducted using standard microtiter plate assays using an automated liquid handling system, 270 μl of the surfactant test solution was pipetted into each well of the microtitre plate and 30 μl of the bacterial suspension was then added. After exactly 15 seconds of bacterial exposure, a 30 μl volume of bacterial cells was withdrawn and transferred to 270 μl of D/E quench solution. After 5 minutes in the D/E quench, the optical density (OD) was measured for each plate in turn at two specific wavelengths (450 nm and 590 nm). These provide a dual check of antimicrobial activity, as the OD450 reading is specific for the yellow colour of D/E quench when bacterial growth is observed, whereas OD590 is specific for the initial purple colour of the D/E quench which is retained if no bacterial growth is observed. After the time zero OD measurements, plates were then incubated at 37° C. overnight (16 hours) before repeating the OD measurements. Delta OD values were calculated by subtracting […]. Bacterial growth is observed as art increase in OD450 and a decrease in ΔOD590. To identify antibacterially efficacious systems (those preventing appreciable bacterial growth after incubation), the following threshold changes in OD readings have been adopted: if (1). OD450 increases by less than 0.2 absorbance unit on incubation and (2). OD590 decreases by less than 0.35 unit on incubation. Conversely, where OD450 increases by more than 0.2 AU and OD590 decreases by more than 0.35 unit after incubation, corresponding to a colour shift from purple to yellow, the test system allows bacterial growth and is not deemed efficacious, four replicate measurements in the same plate have been made for each test system. The number of replicate wells showing either bacterial growth or no growth is also readily assessed by eye by following the colour change.
Dose responses for individual components and binary mixtures of actives at a fixed concentration ratio were generated by sequential dilution of liquors with further surfactant solution to obtain a series of endpoints.
In some selected cases, the combinations were also tested at the weight ratio 1:1.

[3] = tested on: Escherichia coli (10536 strain); assay: 15 seconds contact kill assay of actives in water, mean bacterial survival NMBS; conditions: for NMBS: alone, 15 seconds contact
[4] = single active alone at 0.2% w/v
[5] = single active alone at 0.3% w/v
[6] = single active alone at 0.1% w/v

## CC(C)(C)c1cccc(O)c1 [3-tert-butylphenol]
[1]
  SI (Synergy Index = Qa/QA + Qb/QB): 1.00
  MBC of the component acting alone (QA or QB): 0.3 weight %

## CCCCc1ccc(O)cc1 [4-n-butylphenol]
[2]
  MBC: > 2000 µg/mL
[1]
  MBC of the component acting alone (QA or QB): 0.2 weight %
[3]; 0.0125% w/v, E. coli
  NMBS: 7.85 log CFU/ml
[3]; E. coli, in water, component alone
  MBC (minimum biocidal concentration): 0.25 % w/v
[3]; […] w/v, E. coli
  NMBS: 0 log CFU/ml

## CC1CCC(CO)C(C)C1 (stereo not drawn) [dihydrofloralol, 2,4-Dimethylcyclohexylmethanol]
[2]
  MBC: 4000 µg/mL
[2]; [4]
  No. of replicates showing growth (out of 4): 4
  Δ OD 450 nm = OD450 (time = 16 hours) − OD450 (time zero), Mean: −1.39
  Δ OD 590 nm OD590 (time = 16 hours) − OD590 (time zero), Mean: 0.41
[3]; 0.3% w/v, E. coli
  NMBS: 6.18 log CFU/ml
[3]; 0.4% w/v, E. coli
  NMBS: 3.97 log CFU/ml
[3]; 0.5% w/v, E. coli
  NMBS: 0.00 log CFU/ml

## CCCCc1ccc(O)cc1 [4-n-butyl phenol]
[3]; phenolic compound alone, complete bacterial kill against E. coli
  MBC of phenolic compound: 0.25 % (w/v)

## CCC(C)c1ccc(O)cc1 (stereo not drawn) [4-sec-butylphenol]
[1]
  SI (Synergy Index = Qa/QA + Qb/QB): 1.00

## C=C(C)[C@@H]1CC=C(CO)CC1 [(S)-(−) perillyl alcohol]
[2]; [4]
  No. of replicates showing growth (out of 4): 4
  Δ OD 450 nm = OD450 (time = 16 hours) − OD450 (time zero), Mean: −1.44
  Δ OD 590 nm OD590 (time = 16 hours) − OD590 (time zero), Mean: 0.36
[2]; [5]
  No. of replicates showing growth (out of 4): 4
  Δ OD 450 nm = OD450 (time = 16 hours) − OD450 (time zero), Mean: −1.15
  Δ OD 590 nm OD590 (time = 16 hours) − OD590 (time zero), Mean: 0.56
[2]; single active alone at […] w/v
  No. of replicates showing growth (out of 4): 1
  Δ OD 450 nm = OD450 (time = 16 hours) − OD450 (time zero), Mean: −0.18
  Δ OD 590 nm OD590 (time = 16 hours) − OD590 (time zero), Mean: 0.19

## CCC(C)c1ccccc1O (stereo not drawn) [2-sec-butylphenol]
[2]; [6]
  No. of replicates showing growth (out of 4): 4
  Δ OD 450 nm = OD450 (time = 16 hours) − OD450 (time zero), Mean: −1.44
  Δ OD 590 nm OD590 (time = 16 hours) − OD590 (time zero), Mean: 0.36

## CCC(C)c1ccccc1O (stereo not drawn) [2-sec-butyl phenol]
[2]
  MBC of phenol: 0.175 % (w/v)

## CCCCc1ccc(O)cc1 [4-butylphenol]
[2]; [6]
  No. of replicates showing growth (out of 4): 4
  Δ OD 450 nm = OD450 (time = 16 hours) − OD450 (time zero), Mean: −0.61
  Δ OD 590 nm OD590 (time = 16 hours) − OD590 (time zero), Mean: 0.53
[2]; [4]
  No. of replicates showing growth (out of 4): 4
  Δ OD 450 nm = OD450 (time = 16 hours) − OD450 (time zero), Mean: −0.54
  Δ OD 590 nm OD590 (time = 16 hours) − OD590 (time zero), Mean: 0.58
[2]; single active alone at […] w/v
  No. of replicates showing growth (out of 4): 4
  Δ OD 450 nm = OD450 (time = 16 hours) − OD450 (time zero), Mean: −0.58
  Δ OD 590 nm OD590 (time = 16 hours) − OD590 (time zero), Mean: 0.54

## Cc1ccc(C(C)(C)C)c(O)c1 [2-tert-butyl-5-methylphenol]
[2]
  MBC of phenol: 0.2 % (w/v)
